Data as given in US20090175872A1, “Treatment of Conditions Involving Demyelination” (BIOGEN Idec MA Inc., priority 2005, published 2009).
No end group written: not given here. *: point of attachment. Biotin = O=C1N[C@H]2[C@H](CS[C@H]2CCCCC(=O)*)N1

Target: T1, human ErbB2 (Homo sapiens, UniProt P04626)
T1 construct: expressed in transfected cells; host or cells: CHO cells, transient transfection with Fugene 6, assayed after 48 hours
Test: AP-Sp35 binding to ErbB2-transfected CHO cells
Details: FIG. 17A; read-out: EC50 of binding to CHO cells expressing ErbB2
Experimental: ErbB2 is a member of the type I family of transmembrane receptor tyrosine kinases. The family comprises four members: epidermal growth factor receptor (EGFR or ErbB1), ErB2 (HER2 or neu), ErbB3 and ErbB4. Oligodendrocyte differentiation is positively regulated by the ErbB2 receptor tyrosine kinase. To examine the potential interaction between Sp35 and ErB2, an N-terminal AP-tagged human Sp35 protein was tested for binding to human ErbB2-transfected Chinese hamster ovary (CHO) cells.
90% confluent CHO cells were transfected with various combinations of human ErbB2 vector expression plasmid using Fugene 6 reagents (Roche). After 48 hours, the transfected cells were washed with HBH (Hank's balanced salt solution, 1 mg/ml BSA, 20 mM HEPES (pH 7.0)) and incubated for 1.5 hours at 23° C. or […] with 4 μg/ml of AP-Sp35 (human placental alkaline phosphotase (AP) with an N-terminal six histidine tag, fused to the C-terminus of human Sp35 (residues 34-532), as described in Mi et al., Nat. Neurosci. 7:221-228 (2004)) or control AP-protein in HBH. Bound AP-Sp35 was detected directly or following detergent lysis of the cells by ELISA and enzymatic activity was quantified with 4-NPP as described in Mi et al. Nat. Neurosci. 7:221-228 (2004).
In order to identify the Sp35 domain that binds ErbB2, soluble truncated forms of AP-Sp35 were tested for binding. Both the LRR domain of Sp35 (amino acids 34-417 of SEQ ID NO:2) (AP-Sp35-LRR) and the extracellular domain of Sp35 (amino acids 34-532 of SEQ ID NO:2) (AP-Sp35) bound to ErbB2 expressed in CHO cells. […] FIGS. 17B and 17C.

Row | EC50 [nM] | Molecule
1 | 3 | AP-Sp35: human placental alkaline phosphatase with six histidine tag fused to human Sp35 residues 34-532 (protein, listed as Homo sapiens, alkaline phosphatase fusion partner) TGCPPRCECSAQDRAVLCHRKRFVAVPEGIPTETRLLDLGKNRIKTLNQDEFASFPHLEELELNENIVSAVEPGAFNNLFNLRTLGLRSNRLKLIPLGVFTGLSNLTKLDISENKIVILLDYMFQDLYNLKSLEVGDNDLVYISHRAFSGLNSLEQLTLEKCNLTSIPTEALSHLHGLIVLRLRHLNINAIRDYSFKRLYRLKVLEISHWPYLDTMTPNCLYGLNLTSLSITHCNLTAVPYLAVRHLVYLRFLNLSYNPISTIEGSMLHELLRLQEIQLVGGQLAVVEPYAFRGLNYLRVLNVSGNQLTTLEESVFHSVGNLETLILDSNPLACDCRLLWVFRRRWRLNFNRQQPTCATPEFVQGKEFKDFPDVLLPNYFTCRRARIRDRKAQQVFVDEGHTVQFVCRADGDPPPAILWLSPRKHLVSAKSNGRLTVFPDGTLEVRYAQVQDNGTYLCIAANAGGNDSMPAHLHVRSYSPDWPHQPNKTFAFISNQPGE

Same assay, conditions: FIGS. 17B and 17C

Row | binding to ErbB2 expressed in CHO cells | Molecule
2 | bound | AP-Sp35: human placental alkaline phosphatase with six histidine tag fused to human Sp35 residues 34-532 (protein, listed as Homo sapiens, alkaline phosphatase fusion partner) TGCPPRCECSAQDRAVLCHRKRFVAVPEGIPTETRLLDLGKNRIKTLNQDEFASFPHLEELELNENIVSAVEPGAFNNLFNLRTLGLRSNRLKLIPLGVFTGLSNLTKLDISENKIVILLDYMFQDLYNLKSLEVGDNDLVYISHRAFSGLNSLEQLTLEKCNLTSIPTEALSHLHGLIVLRLRHLNINAIRDYSFKRLYRLKVLEISHWPYLDTMTPNCLYGLNLTSLSITHCNLTAVPYLAVRHLVYLRFLNLSYNPISTIEGSMLHELLRLQEIQLVGGQLAVVEPYAFRGLNYLRVLNVSGNQLTTLEESVFHSVGNLETLILDSNPLACDCRLLWVFRRRWRLNFNRQQPTCATPEFVQGKEFKDFPDVLLPNYFTCRRARIRDRKAQQVFVDEGHTVQFVCRADGDPPPAILWLSPRKHLVSAKSNGRLTVFPDGTLEVRYAQVQDNGTYLCIAANAGGNDSMPAHLHVRSYSPDWPHQPNKTFAFISNQPGE
3 | no detectable binding | AP-Sp35-Ig: AP-tagged Ig plus stalk domain of Sp35, amino acids 417-532 of SEQ ID NO:2 (protein, listed as Homo sapiens, AP tag fused) RARIRDRKAQQVFVDEGHTVQFVCRADGDPPPAILWLSPRKHLVSAKSNGRLTVFPDGTLEVRYAQVQDNGTYLCIAANAGGNDSMPAHLHVRSYSPDWPHQPNKTFAFISNQPGE
4 | bound | AP-Sp35-LRR: AP-tagged LRR domain of Sp35, amino acids 34-417 of SEQ ID NO:2 (protein, listed as Homo sapiens, AP tag fused) TGCPPRCECSAQDRAVLCHRKRFVAVPEGIPTETRLLDLGKNRIKTLNQDEFASFPHLEELELNENIVSAVEPGAFNNLFNLRTLGLRSNRLKLIPLGVFTGLSNLTKLDISENKIVILLDYMFQDLYNLKSLEVGDNDLVYISHRAFSGLNSLEQLTLEKCNLTSIPTEALSHLHGLIVLRLRHLNINAIRDYSFKRLYRLKVLEISHWPYLDTMTPNCLYGLNLTSLSITHCNLTAVPYLAVRHLVYLRFLNLSYNPISTIEGSMLHELLRLQEIQLVGGQLAVVEPYAFRGLNYLRVLNVSGNQLTTLEESVFHSVGNLETLILDSNPLACDCRLLWVFRRRWRLNFNRQQPTCATPEFVQGKEFKDFPDVLLPNYFTCRR

Test system: co-cultures of dorsal root ganglion (DRG) neurons and oligodendrocytes
Test: Myelination in co-cultures of DRG neurons and oligodendrocytes
Type: cell-based, rat
Details: 4-week-old treated co-cultures, anti-MBP antibody
Experimental: The role of Sp35 in myelination was examined in vitro by treating co-cultures of dorsal root ganglion (DRG) neurons and oligodendrocytes with Sp35-Fc and testing for myelination by immunohistochemistry and electron microscopy. For these studies, it was necessary to first generate primary cultures of DRG neurons and of oligodendrocytes.
Female Long Evans rat E14-E17 embryonic dorsal root ganglia were cultured as described by Plant et al., J. Neurosci. 22:6083-91 (2002). Dissected DRGs were plated on poly-L-lysine-coated cover slips (100 μg/ml) for 2 weeks in the presence of fluorodeoxyuridine for days 2-6 and days 8-11 in NLA medium containing 1×B27, 100 ng/ml NGF (Invitrogen).
A2B5^+ oligodendrocytes were prepared as described in Example 1, and were harvested by trypsinization.
For coculture studies, A2B5^+ oligodendrocytes were added to DRG neuron drop cultures in the presence or absence of 10 μg/ml Sp35-Fc. The culture medium (Neurobasal medium supplemented with B27 and 100 ng/ml NGF) was changed, and fresh Sp35-Fc was added to the cells every 3 d. To identify changes in myelination, 2-week-old cultures were stained by immunohistochemical staining (“IHC”) for neurofilaments with anti-βIII-tubulin antibody to identify axons, or anti-MBP antibody to identify oligodendrocytes., and 4-week-old cultures were subjected to SDS-PAGE followed by western blot analyses to quantify the MBP. In selected examples, cells were fixed for electron microscopy studies by adding 2.5% gluteraldehyde directly onto the cover slips. Myelinated axons in the 2-week-old cultures were quantified by counting the number of myelinated internode bundles that were derived from single MBP^+ oligodendrocytes. Samples were analyzed in duplicate. Error bars denote individual determinations. P values in all studies were determined using a one-way analysis of variance. […]
We performed experiments to address the relative contributions to the myelination process of Sp35 in DRG neurons as compared to oligodendrocytes. We infected DRG neurons, oligodendrocytes and co-cultures (prepared as described in Example 5) with the FL-Sp35 and DN-Sp35 lentiviral vectors described in Example 1 and performed immunohistochemical straining for myelinated MBP^+ cells after two weeks. A 2-fold increase in MBP levels in co-cultures where both cells express DN-Sp35 and a 2-fold decrease in MBP levels in co-cultures where both cells express FL-Sp35 was observed (FIG. 10G).

Row | Molecule | expression of MBP (western blot)
5 | Ac-CLSPRKHC (Ac-CLSPRKHC-NH2; also: cyclic, type not given here) | increased expression of MBP
6 | Biotin-GSGCKHSPLRC (cysteine pairing not given here) | no increase in MBP
7 | Biotin-GSGCLSPEKVC (cysteine pairing not given here) | no increase in MBP
8 | Ac-CLSPEKVC (also: cyclic, type not given here) | no increase in MBP
9 | Biotin-GSGCLSPRKHC (cysteine pairing not given here) | increased expression of MBP
